Where two headings read alike, the source gives them in different places.
Assays:
[1] = test system: influenza A virus H1N1 subtype; experiment: Antiviral assay, influenza A virus H1N1 subtype in MDCK cells; type: cell-based, influenza A virus H1N1 (A/PR/8)
[2] = test system: Madin Darby canine kidney cells (MDCK); conditions: microscopically detectable alteration of cell morphology
[3] = test system: Capan-1 (pancreatic adenocarcinoma); experiment: Cytostatic activity (cell proliferation); type: cell-based; conditions: Homo sapiens, CAPAN-1
Protocol: (§1) The 50% cytostatic inhibitory concentration (IC50) causing a 50% decrease in cell proliferation was determined for all obtained compounds toward 9 cancerous cell lines, i.e.,: Capan-1 (pancreatic adenocarcinoma), Hap1 (chronic myeloid leukemia), HCT-116 (colorectal carcinoma), NCI-H460 (lung carcinoma), DND-41 (acute lymphoblastic leukemia), HL-60 (acute myeloid leukemia), K-562 (chronic myeloid leukemia), MM.1S (multiple myeloma), Z-138 non-Hodgkin lymphoma), as well as normal retina (non-cancerous) cells (hTERT RPE-1).
(§2) All assays were performed in 96-well microtiter plates. To each well was added (5–7.5) × 10^4 tumor cells and a given amount of the tested compound. The cells were allowed to proliferate at 37 °C in a humidified, CO2-controlled atmosphere. At the end of the incubation period, the cells were counted in a Coulter counter.

S. aureus ATCC 25923 = experiment: Oxacillin MIC reduction (adjuvant) microdilution assay; type: cell-based, Staphylococcus aureus; conditions: MIC(OXA)/MIC(OXA+Cpd), compound 0.5 mM, adjuvant activity if A ≥ 4
Protocol: (§3) Since the lack of direct antibacterial activity of the obtained azetidinones was observed, all isomers trans and cis were investigated on their “adjuvant” properties, i.e., an ability to enhance the effectiveness of antibiotics against S. aureus strains. Thus, the compounds were tested in combination with the known β-lactam antibiotic, oxacillin, in the microdilution assays. The ability of the tested azetidinones to reduce minimum inhibitory concentration (MIC) of oxacillin against both, the referenced and the resistant S. aureus strains, was assessed.
(§4) The in-vitro antibacterial property and the capacity of tested compounds to increase the efficacy of antibiotics were evaluated in two Staphylococcus aureus strains, i.e., the reference clonal complex 5 (CC5) methicillin-susceptible (MSSA) strain ATCC 25923, and the methicillin-resistant (MRSA) extensively drug-resistant (XDR) clinical isolate HEMSA-5 [46].
(§5) In order to assess the increase of antibiotic efficacy, the assays were conducted by determining if/to what extent the investigated compounds reduce MICs of oxacillin by means of a serial dilution broth microplate method, in accordance with the CLSI requirements. The concentrations of compounds used in the MICs reduction assay were no greater than 1/4 of their respective MICs to ensure that cell viability was not affected by the intrinsic antibacterial activity of the molecules. Serial two-fold dilutions of oxacillin (Sigma-Aldrich; St. Louis, MI, USA, cat. no. 28221), were prepared in […] of the Mueller–Hinton broth (Merck; Darmstadt, Germany, cat. no. 1102930500). Suitable concentrations of the compounds (total volume […]) were then added. Bacterial suspensions were diluted to OD ¼ 0.5. The resulting suspensions were then diluted 1:100 and added in the volume of […] into the oxacillin serial dilutions with the compounds. The results were read after 20-h incubation at 37 °C.
(§6) The ability of compounds to improve antibiotic efficacy was expressed as the activity gain [A] parameter calculated according to the formula given in Figure 10.
(§7) Figure 10 Activity gain. MICAnt corresponds to the MIC of oxacillin in the absence of a compound tested and MICAnt + Comp refers to the MIC of oxacillin paired with a compound tested.

MRSA HEMSA 5 = experiment: as above; type: cell-based, Staphylococcus aureus; conditions: MIC(OXA)/MIC(OXA+Cpd), compound 0.5 mM, adjuvant activity if A ≥ 4
Protocol: as §3, §4, §5, §6, §7

in vitro = conditions: dog
[4] = test system: HCT-116 (colorectal carcinoma); experiment: Cytostatic activity (cell proliferation); type: cell-based; conditions: Homo sapiens, HCT-116
Protocol: as §1, with “RPE-1). Docetaxel, etoposide and stauroporine were used as the reference compounds.” for “RPE-1).”
as §2, with “counter. The IC50 (50% inhibitory concentration) was defined as the concentration of the compound that inhibited cell proliferation by 50%.” for “counter.”

[5] = test system: Hap1 (chronic myeloid leukemia); experiment: Cytostatic activity (cell proliferation); type: cell-based; conditions: Homo sapiens, HAP1
Protocol: as §1, with “RPE-1). Docetaxel, etoposide and stauroporine were used as the reference compounds.” for “RPE-1).”
as §2, with “counter. The IC50 (50% inhibitory concentration) was defined as the concentration of the compound that inhibited cell proliferation by 50%.” for “counter.”

[6] = test system: DND-41 (acute lymphoblastic leukemia); experiment: Cytostatic activity (cell proliferation); type: cell-based; conditions: DND41
Protocol: as §1, with “RPE-1). Docetaxel, etoposide and stauroporine were used as the reference compounds.” for “RPE-1).”
as §2, with “counter. The IC50 (50% inhibitory concentration) was defined as the concentration of the compound that inhibited cell proliferation by 50%.” for “counter.”

[7] = test system: hTERT RPE-1 normal retina (non-cancerous) cells; experiment: Cytostatic activity (cell proliferation); type: cell-based; conditions: hTERT-RPE1
Protocol: as §1, with “RPE-1). Docetaxel, etoposide and stauroporine were used as the reference compounds.” for “RPE-1).”
as §2, with “counter. The IC50 (50% inhibitory concentration) was defined as the concentration of the compound that inhibited cell proliferation by 50%.” for “counter.”

[8] = test system: NCI-H460 (lung carcinoma); experiment: Cytostatic activity (cell proliferation); type: cell-based; conditions: Homo sapiens, NCI-H460
Protocol: as §1, with “RPE-1). Docetaxel, etoposide and stauroporine were used as the reference compounds.” for “RPE-1).”
as §2, with “counter. The IC50 (50% inhibitory concentration) was defined as the concentration of the compound that inhibited cell proliferation by 50%.” for “counter.”

human coronavirus (229E) = experiment: microbe, parasite or virus in culture; type: cell-based
[9] = test system: cytomegalovirus AD-169 strain; experiment: Antiviral CPE reduction assay, cytomegalovirus AD-169 strain in HEL cells; type: cell-based, human cytomegalovirus (HCMV); conditions: Human betaherpesvirus 5, AD169
[10] = test system: human embryonic lung (HEL) cells; conditions: uninfected host cells of the coronavirus/cytomegalovirus assays
[11] = H1N1, MDCK cells, visual CPE score, read-out: EC50 by visual CPE score, influenza A virus H1N1
[12] = H1N1, MDCK, read-out: EC50 by TMS score, influenza A virus H1N1

| SMILES | EC50 [1, 11] | EC50 [1, 12] | MCC (minimum cytotoxic concentration) [2] | IC50 [3] | Activity Gain [A] (S. aureus ATCC 25923) | Activity Gain [A] (MRSA HEMSA 5) | CC50 (in vitro) | IC50 [4] | IC50 [5] | IC50 [6] | IC50 [7] | IC50 [8] | Activity against human coronavirus (229E) relative to ribavirin (human coronavirus (229E)) | EC50 (human coronavirus (229E); Human coronavirus 229E, HEL cells, reduction of virus-induced cytopathogenicity by 50%) | EC50 [9] | Effect on normal cell morphology [10] |
| --- | --- | --- | --- | --- | --- | --- | --- | --- | --- | --- | --- | --- | --- | --- | --- | --- |
| CCOP(=O)(OCC)[C@@H]1[C@H](c2ccc(F)c(C)c2)C(=O)N1Cc1ccccc1 (relative stereo) [cis-11f, cis-N-benzyl-3-(4-fluoro-3-methylphenyl)-4-(diethoxyphosphoryl)azetidin-2-one] | 12 µM | 8.3 µM | > 100 µM | 38.4 µM | <0.5 | 1–2 | 39.9 µM | > 100 µM | > 100 µM | > 100 µM | > 100 µM | 53.6 µM |  |  |  |  |
| CCOP(=O)(OCC)[C@H]1[C@H](c2ccc(F)cc2)C(=O)N1C (relative stereo) [trans-10d, trans-N-methyl-3-(4-fluorophenyl)-4-(diethoxyphosphoryl)azetidin-2-one] |  |  |  | 45.7 µM | 0.5 | 1 |  | > 100 µM | 58.1 µM | > 100 µM | > 100 µM | 41.3 µM |  |  |  |  |
| CCOP(=O)(OCC)[C@H]1[C@H](c2ccc(F)cc2F)C(=O)N1C (relative stereo) [trans-10e, trans-N-methyl-3-(2,4-difluorophenyl)-4-(diethoxyphosphoryl)azetidin-2-one] |  |  |  | 51.7 µM | <0.5 | 1 |  | > 100 µM | 51.7 µM | > 100 µM | > 100 µM | 67.6 µM |  |  |  |  |
| CCOP(=O)(OCC)[C@H]1[C@H](c2ccc(F)c(C)c2)C(=O)N1C (relative stereo) [trans-10f, trans-N-methyl-3-(4-fluoro-3-methylphenyl)-4-(diethoxyphosphoryl)azetidin-2-one] |  |  |  | 47.7 µM | 0.5 | 1 |  | > 100 µM | 41.8 µM | > 100 µM | 90.2 µM | 59.7 µM |  |  |  |  |
| CCOP(=O)(OCC)[C@H]1[C@H](c2ccccc2)C(=O)N1Cc1ccccc1 (relative stereo) [trans-11a, trans-N-benzyl-3-phenyl-4-(diethoxyphosphoryl)azetidin-2-one] |  |  |  | 61 µM | <0.5 | 1–2 |  | > 100 µM | 63.6 µM | > 100 µM | > 100 µM | 50.9 µM |  |  |  |  |
| CCOP(=O)(OCC)[C@H]1[C@H](c2ccccc2F)C(=O)N1Cc1ccccc1 (relative stereo) [trans-11b, trans-N-benzyl-3-(2-fluorophenyl)-4-(diethoxyphosphoryl)azetidin-2-one] |  |  |  | 51.9 µM | <0.5 | 1–2 |  | > 100 µM | > 100 µM | > 100 µM | > 100 µM | 56.7 µM |  |  |  |  |
| CCOP(=O)(OCC)[C@H]1[C@H](c2cccc(F)c2)C(=O)N1Cc1ccccc1 (relative stereo) [trans-11c, trans-N-benzyl-3-(3-fluorophenyl)-4-(diethoxyphosphoryl)azetidin-2-one] |  |  |  | 40.1 µM | <0.5 | 1 |  | 45.5 µM | 56.1 µM | > 100 µM | 45.9 µM | 44.3 µM |  |  |  |  |
| CCOP(=O)(OCC)[C@H]1[C@H](c2ccc(F)cc2)C(=O)N1Cc1ccccc1 (relative stereo) [trans-11d, trans-N-benzyl-3-(4-fluorophenyl)-4-(diethoxyphosphoryl)azetidin-2-one] |  |  |  | 35.8 µM | 0.5 | 2 |  | 44.3 µM | 48.3 µM | > 100 µM | 73 µM | 28.4 µM |  |  |  |  |
| CCOP(=O)(OCC)[C@H]1[C@H](c2ccc(F)cc2F)C(=O)N1Cc1ccccc1 (relative stereo) [trans-11e, trans-N-benzyl-3-(2,4-difluorophenyl)-4-(diethoxyphosphoryl)azetidin-2-one] |  |  |  | 36.5 µM | 0.5 | 1 |  | 36.6 µM | 42.9 µM | > 100 µM | 25.6 µM | 24.4 µM |  |  |  |  |
| CCOP(=O)(OCC)[C@H]1[C@H](c2ccc(F)c(C)c2)C(=O)N1Cc1ccccc1 (relative stereo) [trans-11f, trans-N-benzyl-3-(4-fluoro-3-methylphenyl)-4-(diethoxyphosphoryl)azetidin-2-one] |  |  |  | 34.8 µM | 0.5 | 16 |  | 35.3 µM | 46.5 µM | 65.8 µM | 33.5 µM | 37 µM | ~2.5 fold | 45 µM | 54.7 µM | did not affect normal cell morphology |
| Nc1ccn(C[C@@H](CO)OCP(=O)(O)O)c(=O)n1 [cidofovir] |  |  |  |  |  |  |  |  |  |  |  |  |  |  | 0.67 µM |  |
| Nc1nc(O)c2ncn(COC(CO)CO)c2n1 [ganciclovir] |  |  |  |  |  |  |  |  |  |  |  |  |  |  | 3.15 µM |  |
| NC(=O)c1ncn([C@@H]2O[C@H](CO)[C@@H](O)[C@H]2O)n1 [ribavirin, reference compound] | 8.9 µM | 6.6 µM |  |  |  |  | ≥ 100 µM |  |  |  |  |  |  |  |  |  |

Reference: PMC8348901, “Novel N-Substituted 3-Aryl-4-(diethoxyphosphoryl)azetidin-2-ones as Antibiotic Enhancers and Antiviral Agents in Search for a Successful Treatment of Complex Infections” (International Journal of Molecular Sciences, 2021)
